# Results taken from paper PMC5218480 (PLoS ONE, 2017).
# System: MV-4-11 cells
# Assay: Gene expression microarray analysis (Affymetrix PrimeView) and GSEA
# Format: cell-based, human
# Parameters: RFU PODN (11730768_x_at) / Fold change /veh PODN (11730768_x_at) / RFU LINC00158 (11744669_a_at) / Fold change /veh LINC00158 (11744669_a_at) / RFU DUSP10 (11751237_a_at) / Fold change /veh DUSP10 (11751237_a_at) / RFU ID3 (11757404_x_at) / Fold change /veh ID3 (11757404_x_at) / RFU PLEKHG5 (11737974_s_at) / Fold change /veh PLEKHG5 (11737974_s_at) / RFU LRRC4B (11730491_at) / Fold change /veh LRRC4B (11730491_at) / RFU GIMAP4 (11747438_a_at) / Fold change /veh GIMAP4 (11747438_a_at) / RFU KRT8 (11758183_x_at) / Fold change /veh KRT8 (11758183_x_at) / RFU CNN1 (11734310_a_at) / Fold change /veh CNN1 (11734310_a_at) / RFU VPS37D (11726825_at) / Fold change /veh VPS37D (11726825_at) / RFU C10orf10 (11716522_x_at) / Fold change /veh C10orf10 (11716522_x_at) / RFU KIR2DL2 /// KIR2DL4 /// KIR2DL5A /// KIR2DL5B /// KIR2DS1 /// KIR2DS2 /// KIR2DS3 /// KIR2DS4 /// KIR3DL3 /// KIR3DL3 /// KIR3DS1 (11738374_at) / Fold change /veh KIR2DL2 /// KIR2DL4 /// KIR2DL5A /// KIR2DL5B /// KIR2DS1 /// KIR2DS2 /// KIR2DS3 /// KIR2DS4 /// KIR3DL3 /// KIR3DL3 /// KIR3DS1 (11738374_at) / RFU C1QL1 (11718748_at) / Fold change /veh C1QL1 (11718748_at) / RFU TMPRSS4 (11747572_a_at) / Fold change /veh TMPRSS4 (11747572_a_at) / RFU HAMP (11756126_x_at) / Fold change /veh HAMP (11756126_x_at) / RFU RNFT2 (11725882_a_at) / Fold change /veh RNFT2 (11725882_a_at) / RFU NR4A2 (11747474_a_at) / Fold change /veh NR4A2 (11747474_a_at) / RFU ABCC12 (11746883_a_at) / Fold change /veh ABCC12 (11746883_a_at) / RFU TMEM136 (11760407_x_at) / Fold change /veh TMEM136 (11760407_x_at) / RFU CLDN22 /// WWC2 (11732394_at) / Fold change /veh CLDN22 /// WWC2 (11732394_at) / RFU HLA-DPB1 (11760878_x_at) / Fold change /veh HLA-DPB1 (11760878_x_at) / RFU SPINT1 (11716480_a_at) / Fold change /veh SPINT1 (11716480_a_at) / RFU GAP43 (11754022_s_at) / Fold change /veh GAP43 (11754022_s_at) / RFU A4GNT (11735810_at) / Fold change /veh A4GNT (11735810_at) / RFU PRB3 (11715151_x_at) / Fold change /veh PRB3 (11715151_x_at) / RFU TUBB4B (11761932_at) / Fold change /veh TUBB4B (11761932_at) / RFU CAPN14 (11732068_a_at) / Fold change /veh CAPN14 (11732068_a_at) / RFU TMCC2 (11721928_a_at) / Fold change /veh TMCC2 (11721928_a_at) / RFU IRGQ (11745062_a_at) / Fold change /veh IRGQ (11745062_a_at) / RFU FAM174B (11720279_a_at) / Fold change /veh FAM174B (11720279_a_at) / RFU TMPRSS4 (11748680_a_at) / Fold change /veh TMPRSS4 (11748680_a_at) / RFU FAM212B (11763350_a_at) / Fold change /veh FAM212B (11763350_a_at) / RFU PLEKHG5 (11743358_a_at) / Fold change /veh PLEKHG5 (11743358_a_at) / RFU ZSCAN30 (11745921_a_at) / Fold change /veh ZSCAN30 (11745921_a_at) / RFU CMKLR1 (11741424_a_at) / Fold change /veh CMKLR1 (11741424_a_at) / RFU LOC101060620 /// MAPK8IP1 (11723275_at) / Fold change /veh LOC101060620 /// MAPK8IP1 (11723275_at) / RFU SPTSSB (11747773_x_at) / Fold change /veh SPTSSB (11747773_x_at) / RFU PRSS12 (11739890_at) / Fold change /veh PRSS12 (11739890_at) / RFU BIN1 (11741810_x_at) / Fold change /veh BIN1 (11741810_x_at) / RFU WNT11 (11732464_a_at) / Fold change /veh WNT11 (11732464_a_at) / RFU C10orf10 (11716521_a_at) / Fold change /veh C10orf10 (11716521_a_at) / RFU C5orf56 (11738089_at) / Fold change /veh C5orf56 (11738089_at) / RFU CYB561 (11721691_x_at) / Fold change /veh CYB561 (11721691_x_at) / RFU ANKRD19P (11752326_a_at) / Fold change /veh ANKRD19P (11752326_a_at) / RFU OR2T12 /// OR2T33 /// OR2T8 (11738714_s_at) / Fold change /veh OR2T12 /// OR2T33 /// OR2T8 (11738714_s_at) / RFU VCAN (11748164_a_at) / Fold change /veh VCAN (11748164_a_at) / RFU JSRP1 (11732532_at) / Fold change /veh JSRP1 (11732532_at) / RFU KRTAP10-11 (11738290_x_at) / Fold change /veh KRTAP10-11 (11738290_x_at) / RFU MYO3A (11730013_a_at) / Fold change /veh MYO3A (11730013_a_at) / RFU EBF3 (11725865_a_at) / Fold change /veh EBF3 (11725865_a_at) / RFU CAMK2N1 (11719241_x_at) / Fold change /veh CAMK2N1 (11719241_x_at) / RFU C5orf56 (11738088_a_at) / Fold change /veh C5orf56 (11738088_a_at) / RFU OLFML3 (11715873_a_at) / Fold change /veh OLFML3 (11715873_a_at) / RFU LOC100653217 /// NTM (11731650_a_at) / Fold change /veh LOC100653217 /// NTM (11731650_a_at) / RFU MAPK11 (11762145_a_at) / Fold change /veh MAPK11 (11762145_a_at) / RFU FIZ1 (11724087_x_at) / Fold change /veh FIZ1 (11724087_x_at) / RFU OASL (11726364_x_at) / Fold change /veh OASL (11726364_x_at) / RFU SOX15 (11748057_x_at) / Fold change /veh SOX15 (11748057_x_at) / RFU CD79A (11719716_a_at) / Fold change /veh CD79A (11719716_a_at) / RFU HIST1H1D (11736915_at) / Fold change /veh HIST1H1D (11736915_at) / RFU CASKIN2 (11723855_a_at) / Fold change /veh CASKIN2 (11723855_a_at) / RFU LOC730098 (11760151_x_at) / Fold change /veh LOC730098 (11760151_x_at) / RFU OR4N2 (11742367_at) / Fold change /veh OR4N2 (11742367_at) / RFU PRRT2 (11749266_a_at) / Fold change /veh PRRT2 (11749266_a_at) / RFU SNX32 (11753110_a_at) / Fold change /veh SNX32 (11753110_a_at) / RFU CDHR5 (11726645_a_at) / Fold change /veh CDHR5 (11726645_a_at) / RFU RCAN1 (11760418_a_at) / Fold change /veh RCAN1 (11760418_a_at) / RFU FAM167A (11723789_a_at) / Fold change /veh FAM167A (11723789_a_at) / RFU FAM26E (11764081_at) / Fold change /veh FAM26E (11764081_at) / RFU ISYNA1 (11749810_s_at) / Fold change /veh ISYNA1 (11749810_s_at) / RFU ACY1 (11761880_at) / Fold change /veh ACY1 (11761880_at) / RFU 11764098_at / Fold change /veh 11764098_at / RFU SAMD14 (11745864_x_at) / Fold change /veh SAMD14 (11745864_x_at) / RFU NPB (11741838_a_at) / Fold change /veh NPB (11741838_a_at) / RFU TMPRSS6 (11731388_a_at) / Fold change /veh TMPRSS6 (11731388_a_at) / RFU KRTAP10-2 (11738614_at) / Fold change /veh KRTAP10-2 (11738614_at) / RFU ARHGAP8 /// PRR5-ARHGAP8 (11727945_x_at) / Fold change /veh ARHGAP8 /// PRR5-ARHGAP8 (11727945_x_at) / RFU KRTAP5-7 /// NADSYN1 (11734609_at) / Fold change /veh KRTAP5-7 /// NADSYN1 (11734609_at) / RFU RASL12 (11751679_a_at) / Fold change /veh RASL12 (11751679_a_at) / RFU CDKN2B (11736163_a_at) / Fold change /veh CDKN2B (11736163_a_at) / RFU PRF1 (11729649_at) / Fold change /veh PRF1 (11729649_at) / RFU, ZNF638 /// ZNF638-IT1 / Fold change vs veh, ZNF638 /// ZNF638-IT1 / RFU, PANK3 / Fold change vs veh, PANK3 / RFU, SH3YL1 / Fold change vs veh, SH3YL1 / RFU, ZEB2 / Fold change vs veh, ZEB2 / RFU, NRIP1 / Fold change vs veh, NRIP1 / RFU, PTTG1IP / Fold change vs veh, PTTG1IP / RFU, CAPN2 / Fold change vs veh, CAPN2 / RFU, MED14 / Fold change vs veh, MED14 / RFU, SNORA58 / Fold change vs veh, SNORA58 / RFU, C1orf63 / Fold change vs veh, C1orf63 / RFU, LRRFIP1 / Fold change vs veh, LRRFIP1 / RFU, NDUFAF7 / Fold change vs veh, NDUFAF7 / RFU, SLC12A2 / Fold change vs veh, SLC12A2 / RFU, IBTK / Fold change vs veh, IBTK / RFU, ESF1 / Fold change vs veh, ESF1 / Fold change vs veh, TMEM50B / RFU, TAOK1 / Fold change vs veh, TAOK1 / RFU, ACBD3 / Fold change vs veh, ACBD3 / RFU, TMA16 / Fold change vs veh, TMA16 / RFU, RWDD3 / Fold change vs veh, RWDD3 / RFU, BCAT1 / Fold change vs veh, BCAT1 / RFU, EDEM3 / Fold change vs veh, EDEM3 / RFU, TMEM33 / Fold change vs veh, TMEM33 / RFU, WDR75 / Fold change vs veh, WDR75 / RFU, AHCTF1 / Fold change vs veh, AHCTF1 / RFU, TFRC / Fold change vs veh, TFRC / RFU, ZDHHC17 / Fold change vs veh, ZDHHC17 / RFU, NOM1 / Fold change vs veh, NOM1 / RFU, ARL8B / Fold change vs veh, ARL8B / RFU, ZBTB11 / Fold change vs veh, ZBTB11 / RFU, TAMM41 / Fold change vs veh, TAMM41 / RFU, KIAA1704 /// LOC100996395 / Fold change vs veh, KIAA1704 /// LOC100996395 / RFU, ING1 / Fold change vs veh, ING1 / RFU, TRMT61B / Fold change vs veh, TRMT61B / RFU, FUBP3 / Fold change vs veh, FUBP3 / RFU, TP53 / Fold change vs veh, TP53 / RFU, TNKS2 / Fold change vs veh, TNKS2 / RFU, ZFP14 / Fold change vs veh, ZFP14 / RFU, ACTR2 / Fold change vs veh, ACTR2 / RFU, PPP3R1 / Fold change vs veh, PPP3R1 / RFU, PIK3R1 / Fold change vs veh, PIK3R1 / RFU, HNRNPA1 / Fold change vs veh, HNRNPA1 / RFU, RNF170 / Fold change vs veh, RNF170 / RFU, ZNF28 / Fold change vs veh, ZNF28 / RFU, RNGTT / Fold change vs veh, RNGTT / RFU, OGT / Fold change vs veh, OGT / RFU, BRD1 / Fold change vs veh, BRD1 / RFU, MARS / Fold change vs veh, MARS / RFU, ZNF655 / Fold change vs veh, ZNF655 / RFU, FAHD1 / Fold change vs veh, FAHD1 / RFU, BDP1 / Fold change vs veh, BDP1 / RFU, LRRCC1 / Fold change vs veh, LRRCC1 / RFU, ARID1A / Fold change vs veh, ARID1A / RFU, ZNF146 / Fold change vs veh, ZNF146 / RFU, ZNF330 / Fold change vs veh, ZNF330 / RFU, GPN3 / Fold change vs veh, GPN3 / RFU, C9orf123 / Fold change vs veh, C9orf123 / RFU, N4BP2L2 / Fold change vs veh, N4BP2L2 / RFU, ARFIP1 / Fold change vs veh, ARFIP1 / RFU, FAM179B / Fold change vs veh, FAM179B / RFU, BCL10 / Fold change vs veh, BCL10 / RFU, UHRF1BP1L / Fold change vs veh, UHRF1BP1L / RFU, BET1 / Fold change vs veh, BET1 / RFU, CNOT2 / Fold change vs veh, CNOT2 / RFU, ZNF268 / Fold change vs veh, ZNF268 / Fold change vs veh, ZNF507 / RFU, DGCR2 / Fold change vs veh, DGCR2 / RFU, WDSUB1 / Fold change vs veh, WDSUB1 / Fold change vs veh, HSP90B1 /// MIR3652 / RFU, ADSS / Fold change vs veh, ADSS / RFU, GK / Fold change vs veh, GK / RFU, ZNF148 / Fold change vs veh, ZNF148 / RFU, TAF9 / Fold change vs veh, TAF9 / RFU, SLC1A5 / Fold change vs veh, SLC1A5 / RFU, SLMO2 / Fold change vs veh, SLMO2 / RFU, ABCC4 / Fold change vs veh, ABCC4 / RFU, LOC101060439 /// RAP1B / Fold change vs veh, LOC101060439 /// RAP1B / RFU, RFX7 / Fold change vs veh, RFX7 / RFU, GTPBP10 / Fold change vs veh, GTPBP10 / RFU, CNEP1R1 / Fold change vs veh, CNEP1R1 / RFU, BIVM-ERCC5 /// ERCC5 / Fold change vs veh, BIVM-ERCC5 /// ERCC5 / RFU, ILF3 / Fold change vs veh, ILF3 / RFU 11762660_at / Fold change /veh 11762660_at / RFU VCAN (11757783_s_at) / Fold change /veh VCAN (11757783_s_at) / RFU DDX43 (11728927_at) / Fold change /veh DDX43 (11728927_at) / RFU KRT8 (11758188_x_at) / Fold change /veh KRT8 (11758188_x_at) / RFU NKD1 (11759106_at) / Fold change /veh NKD1 (11759106_at) / RFU SRD5A1 (11742802_a_at) / Fold change /veh SRD5A1 (11742802_a_at) / RFU TPSAB1 /// TPSB2 (11721975_s_at) / Fold change /veh TPSAB1 /// TPSB2 (11721975_s_at) / RFU GSTM3 (11746129_a_at) / Fold change /veh GSTM3 (11746129_a_at) / RFU IL23R (11737362_x_at) / Fold change /veh IL23R (11737362_x_at) / RFU TMEM51 (11727254_a_at) / Fold change /veh TMEM51 (11727254_a_at) / RFU PIWIL2 (11732686_x_at) / Fold change /veh PIWIL2 (11732686_x_at) / RFU ORM1 (11744905_x_at) / Fold change /veh ORM1 (11744905_x_at) / RFU CCDC152 (11743942_at) / Fold change /veh CCDC152 (11743942_at) / RFU ECM1 (11717891_a_at) / Fold change /veh ECM1 (11717891_a_at) / RFU IL23R (11748794_a_at) / Fold change /veh IL23R (11748794_a_at) / RFU TNFAIP8L3 (11732012_x_at) / Fold change /veh TNFAIP8L3 (11732012_x_at) / RFU MBOAT4 (11741988_at) / Fold change /veh MBOAT4 (11741988_at) / RFU 11764193_at / Fold change /veh 11764193_at / RFU TMEM53 (11763286_at) / Fold change /veh TMEM53 (11763286_at) / RFU MAGEB2 (11727129_at) / Fold change /veh MAGEB2 (11727129_at) / RFU TMEM200A (11744735_a_at) / Fold change /veh TMEM200A (11744735_a_at) / RFU CCDC152 (11751479_a_at) / Fold change /veh CCDC152 (11751479_a_at) / RFU FAM211A (11726209_a_at) / Fold change /veh FAM211A (11726209_a_at) / RFU RGS16 (11746705_a_at) / Fold change /veh RGS16 (11746705_a_at) / RFU VCAN (11755009_s_at) / Fold change /veh VCAN (11755009_s_at) / RFU RHOB (11743442_s_at) / Fold change /veh RHOB (11743442_s_at) / RFU RGS16 (11720943_a_at) / Fold change /veh RGS16 (11720943_a_at) / RFU RGS16 (11720944_at) / Fold change /veh RGS16 (11720944_at) / RFU, VPS4B / Fold change vs veh, VPS4B / RFU, CREB1 / Fold change vs veh, CREB1 / RFU, DNAJC13 / Fold change vs veh, DNAJC13 / RFU, GNAQ / Fold change vs veh, GNAQ / RFU, CDK5R1 / Fold change vs veh, CDK5R1 / RFU, ZRANB3 / Fold change vs veh, ZRANB3 / RFU, CUL4A / Fold change vs veh, CUL4A / RFU, CCNY / Fold change vs veh, CCNY / RFU, UFL1 / Fold change vs veh, UFL1 / RFU, COG3 / Fold change vs veh, COG3 / RFU, DIAPH2 / Fold change vs veh, DIAPH2 / RFU, SKA2 / Fold change vs veh, SKA2 / RFU, AFF3 / Fold change vs veh, AFF3 / RFU, LMF1 / Fold change vs veh, LMF1 / RFU, IPO11 / Fold change vs veh, IPO11 / RFU, DFFB / Fold change vs veh, DFFB / RFU, FOXP1 / Fold change vs veh, FOXP1 / RFU, CARD8 / Fold change vs veh, CARD8 / RFU, STRN3 / Fold change vs veh, STRN3 / RFU, ADK / Fold change vs veh, ADK / RFU, RASSF2 / Fold change vs veh, RASSF2 / RFU, WIPF1 / Fold change vs veh, WIPF1 / RFU, LARP1B / Fold change vs veh, LARP1B / RFU, RASA1 / Fold change vs veh, RASA1 / RFU, RB1 / Fold change vs veh, RB1 / RFU, PPFIA1 / Fold change vs veh, PPFIA1 / RFU, MAT2A / Fold change vs veh, MAT2A / RFU, CCT5 / Fold change vs veh, CCT5 / RFU, WDR92 / Fold change vs veh, WDR92 / RFU, CUX1 / Fold change vs veh, CUX1 / RFU, TTC7A / Fold change vs veh, TTC7A / RFU, TMEM135 / Fold change vs veh, TMEM135 / RFU, DEPTOR / Fold change vs veh, DEPTOR / RFU, CPM / Fold change vs veh, CPM / RFU, DNAJB6 / Fold change vs veh, DNAJB6 / RFU, CACNA2D3 / Fold change vs veh, CACNA2D3 / RFU, DTX4 / Fold change vs veh, DTX4 / RFU, TFCP2 / Fold change vs veh, TFCP2 / RFU, GMCL1 /// GMCL1P1 / Fold change vs veh, GMCL1 /// GMCL1P1 / RFU, AEBP2 / Fold change vs veh, AEBP2 / RFU, SNHG1 /// SNORD22 /// SNORD25 /// SNORD26 /// SNORD27 /// SNORD28 /// SNORD29 /// SNORD31 / Fold change vs veh, SNHG1 /// SNORD22 /// SNORD25 /// SNORD26 /// SNORD27 /// SNORD28 /// SNORD29 /// SNORD31 / Fold change (Aza/veh), C12orf56 (ProbeSet 11735607_a_at) / Fold change (ACY-1035/veh), C12orf56 (ProbeSet 11735607_a_at) / Fold change (Aza/veh), FGFR1OP (ProbeSet 11751329_s_at) / Fold change (ACY-1035/veh), FGFR1OP (ProbeSet 11751329_s_at) / Fold change (Aza/veh), VPS36 (ProbeSet 11739960_a_at) / Fold change (ACY-1035/veh), VPS36 (ProbeSet 11739960_a_at) / RFU SYPL1 (11715823_x_at) / Fold change /veh SYPL1 (11715823_x_at) / RFU IGFBP7 (11715501_s_at) / Fold change /veh IGFBP7 (11715501_s_at) / RFU REEP3 (11722064_at) / Fold change /veh REEP3 (11722064_at) / RFU IGLL1 (11728026_x_at) / Fold change /veh IGLL1 (11728026_x_at): dose or concentration left out as unconfirmed
# Settings: MV-4-11 cells, 48 hours
smiles,measurement,value
Nc1ncn([C@@H]2O[C@H](CO)[C@@H](O)[C@H]2O)c(=O)n1 [azacitidine],Fold change /veh NKD1 (11759106_at),1.33
